Holding throughout (type): biochemical
In test [1] the target is human DNA polymerase beta (Homo sapiens, UniProt P06746). The test can be described thus: Enzymatic inhibition assay. The note with it: read-out: IC50 DNA pol β.
In test [2] the target is T1, human DNA polymerase gamma (Homo sapiens, UniProt P54098).
T1 sequence (P54098 1-1239): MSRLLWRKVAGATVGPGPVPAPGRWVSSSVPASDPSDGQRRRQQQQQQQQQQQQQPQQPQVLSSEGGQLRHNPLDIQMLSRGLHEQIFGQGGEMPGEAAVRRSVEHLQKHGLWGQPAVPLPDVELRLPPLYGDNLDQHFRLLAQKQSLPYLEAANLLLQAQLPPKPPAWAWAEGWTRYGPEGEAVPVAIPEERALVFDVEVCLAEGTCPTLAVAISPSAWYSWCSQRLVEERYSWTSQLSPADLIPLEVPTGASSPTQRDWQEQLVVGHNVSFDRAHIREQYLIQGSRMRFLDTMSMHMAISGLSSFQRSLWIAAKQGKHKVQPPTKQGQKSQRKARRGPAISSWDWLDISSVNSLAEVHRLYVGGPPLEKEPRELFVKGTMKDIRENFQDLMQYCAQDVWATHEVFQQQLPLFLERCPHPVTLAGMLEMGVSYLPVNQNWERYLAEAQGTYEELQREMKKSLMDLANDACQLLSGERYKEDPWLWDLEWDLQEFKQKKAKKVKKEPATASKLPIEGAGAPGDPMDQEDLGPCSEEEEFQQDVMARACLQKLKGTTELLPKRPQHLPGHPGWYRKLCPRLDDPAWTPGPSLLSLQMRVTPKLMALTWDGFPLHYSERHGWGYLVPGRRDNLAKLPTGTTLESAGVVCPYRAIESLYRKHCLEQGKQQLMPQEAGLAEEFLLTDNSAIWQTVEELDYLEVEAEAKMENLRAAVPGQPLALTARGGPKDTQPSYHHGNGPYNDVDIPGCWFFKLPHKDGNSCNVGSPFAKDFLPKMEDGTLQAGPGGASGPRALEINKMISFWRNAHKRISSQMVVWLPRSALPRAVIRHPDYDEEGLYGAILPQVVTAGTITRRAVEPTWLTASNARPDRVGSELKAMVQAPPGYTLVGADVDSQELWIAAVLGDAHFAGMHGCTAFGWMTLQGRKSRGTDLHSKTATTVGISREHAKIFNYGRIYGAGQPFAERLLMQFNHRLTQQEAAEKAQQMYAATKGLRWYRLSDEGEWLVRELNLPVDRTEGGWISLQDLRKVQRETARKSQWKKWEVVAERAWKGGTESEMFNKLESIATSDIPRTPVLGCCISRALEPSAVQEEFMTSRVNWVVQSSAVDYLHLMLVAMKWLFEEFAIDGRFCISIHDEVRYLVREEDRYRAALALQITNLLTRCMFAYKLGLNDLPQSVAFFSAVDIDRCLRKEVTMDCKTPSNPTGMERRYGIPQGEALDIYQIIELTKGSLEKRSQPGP
T1 sequence (Q9UHN1 26-485 partner limits assumed): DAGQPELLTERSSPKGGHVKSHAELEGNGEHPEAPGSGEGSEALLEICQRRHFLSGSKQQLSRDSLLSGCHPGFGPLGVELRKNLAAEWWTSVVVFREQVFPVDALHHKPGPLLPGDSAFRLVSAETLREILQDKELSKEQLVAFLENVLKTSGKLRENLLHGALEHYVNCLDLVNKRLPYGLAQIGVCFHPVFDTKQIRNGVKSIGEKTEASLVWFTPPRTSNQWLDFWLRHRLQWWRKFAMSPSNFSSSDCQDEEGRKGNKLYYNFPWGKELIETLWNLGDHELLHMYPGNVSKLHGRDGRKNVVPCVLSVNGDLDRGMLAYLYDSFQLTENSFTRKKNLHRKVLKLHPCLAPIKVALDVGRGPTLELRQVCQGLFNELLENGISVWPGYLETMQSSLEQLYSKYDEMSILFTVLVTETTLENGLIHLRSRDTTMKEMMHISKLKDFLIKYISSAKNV
The experiment in a line: Enzymatic inhibition assay. To be noted: read-out: IC50 DNA pol γ.

The next test addresses human POLRMT (Homo sapiens, UniProt O00411). The test can be described thus: Enzymatic inhibition assay. The note with it: read-out: IC50 POLRMT pol.
Test [3] has as its target T2, human mitochondrial DNA Pol γ (Homo sapiens, UniProt P54098).
T2 sequence (P54098 1-1239): T1 sequence (P54098 1-1239)
T2 sequence (Q9UHN1 26-485 partner limits assumed): T1 sequence (Q9UHN1 26-485 partner limits assumed)
The test can be described thus: Single nucleotide incorporation assay. The note with it: 50 μM nucleotide analog; relative to natural dNTP at same concentration.

Chain of human POLRMT (O00411 42-1230): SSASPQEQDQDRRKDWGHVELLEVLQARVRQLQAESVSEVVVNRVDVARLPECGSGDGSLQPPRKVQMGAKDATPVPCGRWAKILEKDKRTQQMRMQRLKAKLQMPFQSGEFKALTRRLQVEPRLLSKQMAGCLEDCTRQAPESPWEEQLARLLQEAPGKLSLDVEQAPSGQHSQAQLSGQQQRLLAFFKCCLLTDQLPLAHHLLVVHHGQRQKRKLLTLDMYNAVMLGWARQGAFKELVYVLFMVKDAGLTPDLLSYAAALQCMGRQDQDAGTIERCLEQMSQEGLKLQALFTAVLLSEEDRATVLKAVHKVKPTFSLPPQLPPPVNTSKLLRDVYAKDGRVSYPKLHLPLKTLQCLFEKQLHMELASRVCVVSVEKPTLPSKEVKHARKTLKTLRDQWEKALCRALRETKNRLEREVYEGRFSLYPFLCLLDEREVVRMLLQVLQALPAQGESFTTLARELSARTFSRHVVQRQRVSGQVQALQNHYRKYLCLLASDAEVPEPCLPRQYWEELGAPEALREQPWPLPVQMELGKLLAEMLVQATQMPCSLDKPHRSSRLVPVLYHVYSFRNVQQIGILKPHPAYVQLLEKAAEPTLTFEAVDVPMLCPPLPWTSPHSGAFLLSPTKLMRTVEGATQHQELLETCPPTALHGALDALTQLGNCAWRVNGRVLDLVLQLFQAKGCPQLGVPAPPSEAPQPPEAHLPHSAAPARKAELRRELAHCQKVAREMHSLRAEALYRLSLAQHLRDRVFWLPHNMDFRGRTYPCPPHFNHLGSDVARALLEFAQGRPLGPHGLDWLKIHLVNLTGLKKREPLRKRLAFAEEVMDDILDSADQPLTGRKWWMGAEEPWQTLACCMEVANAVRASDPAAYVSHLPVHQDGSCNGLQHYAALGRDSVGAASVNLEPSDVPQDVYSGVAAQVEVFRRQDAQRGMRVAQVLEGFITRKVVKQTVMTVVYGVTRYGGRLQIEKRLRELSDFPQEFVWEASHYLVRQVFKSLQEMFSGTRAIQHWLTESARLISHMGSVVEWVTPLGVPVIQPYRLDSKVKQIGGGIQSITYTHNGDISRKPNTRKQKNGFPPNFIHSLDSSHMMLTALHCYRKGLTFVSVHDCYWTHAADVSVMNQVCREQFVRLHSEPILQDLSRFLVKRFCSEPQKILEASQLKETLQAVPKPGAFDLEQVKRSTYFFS

For `Cc1cn([C@H]2CC[C@@H](COP(=O)(O)OP(=O)(O)OP(=O)(O)O)O2)c(=O)[nH]c1=O` [3′dTTP], the IC50 in test [1] was found to be 1900 nM; in test [2], 1200 nM.
Take `Nc1nc2c(ncn2[C@@H]2O[C@H](COP(=O)(O)OP(=O)(O)OP(=O)(O)O)C[C@H]2O)c(=O)[nH]1` [3′deoxy GTP, 3′-deoxy GTP]: the IC50 on human POLRMT is 4200 nM.
For the compound `Nc1ncn([C@H]2C[C@H](O)[C@@H](COP(=O)(O)OP(=O)(O)OP(=O)(O)O)O2)c(=O)n1` [5-aza-2′-dCTP, 5-aza-2′-deoxyCTP], the “Rate of incorporation (% of natural dNTP or NTP), DNA polymerase γ” value in test [3] is listed as 79% ± 8%.

Broadly, the IC50 is the concentration that gives 50% inhibition.

The values are drawn from publication PMC7849018 (Antimicrobial Agents and Chemotherapy, 2021).
